{"source": "patent US20260207623A1", "about": "“USE OF ESTETROL IN HEPATICALLY IMPAIRED PATIENTS” (ESTETRA SRL, priority 2022, published 2026)", "test_system": "female subjects with normal hepatic function, mild, moderate or severe hepatic impairment", "assay": "Safety and tolerability (TEAEs, clinical laboratory, vital signs, physical examination) after a single oral dose of 20 mg E4 monohydrate in the hepatic impairment study", "assay_type": "in vivo, human", "description": "This was a Phase 1, multi-centre, open-label, PK, and safety study of a single oral dose of 20 mg E4 monohydrate in female subjects with normal hepatic function (Group 1), mild hepatic impairment (Group 2), moderate hepatic impairment (Group 3), and severe hepatic impairment (Group 4), as defined using the Child-Pugh classification at Screening.\nSafety and tolerability assessments consisted of treatment-emergent AEs (TEAEs), clinical laboratory, vital signs, physical examination, and gynecological examination. Assessments were performed in accordance with Table 2 and Table 3 in Section 2.5.1.\nAEs/TEAEs were recorded after signing of the ICF until completion of the follow up visit. Any clinically significant observations in results of clinical laboratory, vital signs, or physical examinations were recorded as AEs.\nA TEAE is defined as any event not present prior to administration of the study drug or any event already present that worsens in either severity or frequency following exposure to the study drug.\nThe below listed tests were to be performed by the local laboratories at time points indicated in the Schedule of Assessments (Table 2).\nSystolic and diastolic blood pressure and pulse were recorded after the subject had been resting for at least 5 minutes in the supine position at time points indicated in the Schedule of Assessments (Table 2). These assessments were made using an automated device. Body temperature and respiratory rate were measured subsequently.\nA complete physical examination consisting of a review of all body systems was performed at time points indicated in the Schedule of Assessments (Table 2). A symptom-directed physical examination could be conducted at any time per Investigator's discretion.\n2.6.2.2 Evaluation of Safety and Tolerability Safety and tolerability were assessed through TEAEs, clinical laboratory, vital signs, and physical examination findings, and any other parameter that was relevant for safety assessment.\nA listing of all individual AEs is provided. Summary tables of TEAEs are presented by system organ class (SOC) based on the MedDRA terminology list (preferred terms): a table containing the number of subjects experiencing AEs by hepatic function, a table containing the number of subjects experiencing SAEs by hepatic function (if applicable), a table by hepatic function and relationship, and a table by hepatic function and severity.", "key": {"[1]": {"settings": "Mild (N = 8), single oral dose 20 mg E4"}, "[2]": {"settings": "Moderate (N = 8), single oral dose 20 mg E4"}, "[3]": {"settings": "Normal (N = 8), single oral dose 20 mg E4"}, "[4]": {"settings": "Severe (N = 8), single oral dose 20 mg E4"}, "[5]": {"settings": "Total (N = 32), single oral dose 20 mg E4"}, "[6]": {"settings": "all 32 subjects, single oral dose 20 mg E4"}, "[7]": {"settings": "moderate hepatic impairment group"}}, "note": "“And” between values parts separate entries of the source, which are not always exact repeats. Equal entries are not always repeated. “Also recorded” adds a separate entry of the source.", "data": [{"compound": "C[C@]12CC[C@@H]3c4ccc(O)cc4CC[C@H]3[C@@H]1[C@@H](O)[C@@H](O)[C@@H]2O", "note": "[E4, 1,3,5 (10)-estratrien-3,15alpha, 16alpha, 17beta-tetrol]", "values": [{"measurement": "Subjects by maximum relationship to study drug: Not related", "setting": "[1]", "value": "2 (25.0) n (%)"}, {"measurement": "Subjects by maximum relationship to study drug: Related", "setting": "[1]", "value": "0 n (%)"}, {"measurement": "Subjects with TEAEs by maximum severity: Mild", "setting": "[1]", "value": "2 (25.0) n (%)"}, {"measurement": "Subjects with TEAEs by maximum severity: Moderate", "setting": "[1]", "value": "0 n (%)"}, {"measurement": "Subjects with at least one AE", "setting": "[1]", "value": "2 (25.0) n (%)"}, {"measurement": "Subjects with at least one SAE", "setting": "[1]", "value": "0 n (%)"}, {"measurement": "Subjects with at least one TEAE", "setting": "[1]", "value": "2 n (%) and 2 (25.0) n (%)"}, {"measurement": "Subjects with at least one TEAE leading to study drug discontinuation", "setting": "[1]", "value": "0 n (%)"}, {"measurement": "Subjects by maximum relationship to study drug: Not related", "setting": "[2]", "value": "3 (37.5) n (%)"}, {"measurement": "Subjects by maximum relationship to study drug: Related", "setting": "[2]", "value": "1 (12.5) n (%)"}, {"measurement": "Subjects with TEAEs by maximum severity: Mild", "setting": "[2]", "value": "3 (37.5) n (%)"}, {"measurement": "Subjects with TEAEs by maximum severity: Moderate", "setting": "[2]", "value": "1 (12.5) n (%)"}, {"measurement": "Subjects with at least one AE", "setting": "[2]", "value": "4 (50.0) n (%)"}, {"measurement": "Subjects with at least one SAE", "setting": "[2]", "value": "0 n (%)"}, {"measurement": "Subjects with at least one TEAE", "setting": "[2]", "value": "4 n (%) and 4 (50.0) n (%)"}, {"measurement": "Subjects with at least one TEAE leading to study drug discontinuation", "setting": "[2]", "value": "0 n (%)"}, {"measurement": "Subjects by maximum relationship to study drug: Not related", "setting": "[3]", "value": "2 (25.0) n (%)"}, {"measurement": "Subjects by maximum relationship to study drug: Related", "setting": "[3]", "value": "0 n (%)"}, {"measurement": "Subjects with TEAEs by maximum severity: Mild", "setting": "[3]", "value": "0 n (%)"}, {"measurement": "Subjects with TEAEs by maximum severity: Moderate", "setting": "[3]", "value": "2 (25.0) n (%)"}, {"measurement": "Subjects with at least one AE", "setting": "[3]", "value": "2 (25.0) n (%)"}, {"measurement": "Subjects with at least one SAE", "setting": "[3]", "value": "0 n (%)"}, {"measurement": "Subjects with at least one TEAE", "setting": "[3]", "value": "2 n (%) and 2 (25.0) n (%)"}, {"measurement": "Subjects with at least one TEAE leading to study drug discontinuation", "setting": "[3]", "value": "0 n (%)"}, {"measurement": "Subjects by maximum relationship to study drug: Not related", "setting": "[4]", "value": "1 (12.5) n (%)"}, {"measurement": "Subjects by maximum relationship to study drug: Related", "setting": "[4]", "value": "0 n (%)"}, {"measurement": "Subjects with TEAEs by maximum severity: Mild", "setting": "[4]", "value": "1 (12.5) n (%)"}, {"measurement": "Subjects with TEAEs by maximum severity: Moderate", "setting": "[4]", "value": "0 n (%)"}, {"measurement": "Subjects with at least one AE", "setting": "[4]", "value": "1 (12.5) n (%)"}, {"measurement": "Subjects with at least one SAE", "setting": "[4]", "value": "0 n (%)"}, {"measurement": "Subjects with at least one TEAE", "setting": "[4]", "value": "1 n (%) and 1 (12.5) n (%)"}, {"measurement": "Subjects with at least one TEAE leading to study drug discontinuation", "setting": "[4]", "value": "0 n (%)"}, {"measurement": "Subjects by maximum relationship to study drug: Related", "setting": "[5]", "value": "1 n (%) and 1 (3.1) n (%)"}, {"measurement": "Subjects with TEAEs by maximum severity: Moderate", "setting": "[5]", "value": "3 n (%) and 3 (9.4) n (%)"}, {"measurement": "Subjects with at least one AE", "setting": "[5]", "value": "9 (28.1) n (%)"}, {"measurement": "Subjects with at least one SAE", "setting": "[5]", "value": "0 n (%)"}, {"measurement": "Subjects with at least one TEAE", "setting": "[5]", "value": "9 n (%) and 9 (28.1) n (%)"}, {"measurement": "Subjects with at least one TEAE leading to study drug discontinuation", "setting": "[5]", "value": "0 n (%)"}, {"measurement": "subjects reporting TEAE back pain", "setting": "[6]", "value": 2, "unit": "subjects"}, {"measurement": "subjects reporting TEAE diarrhea", "setting": "[6]", "value": 3, "unit": "subjects"}, {"measurement": "subjects reporting TEAE headache", "setting": "[6]", "value": 2, "unit": "subjects"}, {"measurement": "subjects reporting TEAE hypertension", "setting": "[6]", "value": 2, "unit": "subjects"}, {"measurement": "laboratory values, changes and shifts from baseline (hematology, clinical chemistry)", "setting": "all hepatic function groups", "value": "did not show deviations or trends which would raise safety concerns"}, {"measurement": "number of TEAEs considered of mild intensity", "setting": "all subjects", "value": "Eleven"}, {"measurement": "number of TEAEs considered of moderate intensity", "setting": "all subjects", "value": 4, "unit": "TEAEs"}, {"measurement": "blood pressure, pulse rate, respiratory rate, body temperature", "setting": "changes from baseline", "value": "showed no trends or clinically relevant changes"}, {"measurement": "number of TEAEs considered related to the study drug", "setting": "diarrhea, mild intensity, 1 subject in the moderate group", "value": 1, "unit": "TEAE"}, {"measurement": "subjects with TEAE hypertension", "setting": "mild hepatic impairment group", "value": 2, "unit": "subjects"}, {"measurement": "subjects reporting TEAE diarrhea", "setting": "[7]", "value": 2, "unit": "subjects"}, {"measurement": "subjects reporting TEAE headache", "setting": "[7]", "value": 2, "unit": "subjects"}, {"measurement": "subjects reporting TEAE back pain", "setting": "normal hepatic function group", "value": 1, "unit": "subjects"}, {"measurement": "subjects reporting TEAE diarrhea", "setting": "normal hepatic function group", "value": 1, "unit": "subjects"}, {"measurement": "vital signs, laboratory values, physical examination", "setting": "overall conclusion", "value": "unremarkable"}, {"measurement": "subjects reporting TEAE back pain", "setting": "severe hepatic impairment group", "value": 1, "unit": "subjects"}, {"measurement": "deaths, SAEs, other significant AEs", "setting": "whole study", "value": "no subjects with SAEs; also recorded: No deaths, SAEs, or other significant AEs occurred"}]}]}
